# Data from patent US20050113348A1, “Vitamin D and vitamin D analogs or derivatives as new anti-hypertensive agents” (priority 2003, published 2005).
# What was measured:
# renin mRNA, As4.1 cells = assay: Renin mRNA by northern blot in As4.1 cells with or without transient transfection; type: cell-based, mouse; settings: 5×10^−8 M
# Source text: A. As4.1 cells were transiently transfected with (+) or without (−) pcDNA-hVDR plasmid containing the full-length human VDR cDNA and then. treated with 5×10^−8 M of 1,25(OH)2D3 (+) or ethanol (−) for 24 hrs. Total cellular RNA was isolated and analyzed by northern blot with renin and 36B4 cDNA probes. B. Quantitative results of northern blot analyses obtained from three independent experiments. C, ethanol-treated; VD, 1,25(OH)2D3-treated; T, transfected with pcDNA-hVDR and treated with ethanol; T/VD, transfected with pcDNA-hVDR and treated with 1,25(OH)2D3. *, P<0.001 vs. C, VD or T value. C. Renin mRNA expression in As4.1 cells (left panel), and in As4.1 cells transfected with pcDNA-PTH/PTHrPR containing the rat PTH/PTHrP receptor cDNA (right panel) and treated with bovine PTH (1-34) as indicated. −, untreated.
# (§1) RNA isolation and northern blot. The kidney and liver were dissected and immediately placed into the Trizol Reagent (Invitrogen, Grand Island, N.Y.) for total RNA isolation according to the manufacturer's instruction. To determine renin or angiotensinogen mRNA expression, total RNA (20 μg/lane) was separated on a 1.2% agarose gel containing 0.6 M formaldehyde, transferred onto a Nylon membrane (MSI, Westborough, Mass.) and crosslinked in a UV crosslinker (Bio-Rad, Hercules, Calif.). Hybridization was performed as described by Li et al. (2001). Mouse renin and angiotensinogen cDNA probes were labeled with ^32P-dATP (ICN, Costa Mesa, Calif.) using the Prime-a-gene Labeling System (Promega, Madison, Wis.). After hybridization and washing, membranes were exposed to X-ray films at −80° C. for autoradiography. The relative amount of mRNA was quantitated using a Phospholmager (Molecular Dynamics, Sunnyvale, Calif.) and normalized with 36B4 mRNA.
# As4.1 cell culture and transfection. […] Total RNA was isolated and analyzed for renin mRNA expression by northern blot. […] The As4.1-hVDR stable clones were treated with different doses of 1,25(OH)2D3 for 24 hr in serum-free media, and total RNA were analyzed by northern blot to examine renin expression.
# [1] = Blood ionized calcium and survival of treated mice; type: in vivo, mouse; settings: normal mice
# Source text: Two-month old wildtype mice were fed the normal diet supplemented with 2.5% strontium chloride for 7 weeks before sacrifice. A. Northern blot analysis of renin mRNA expression in the kidney from non-treated and strontium-treated wildtype mice. Each lane represents an individual animal. B. Quantitative results of the northern analysis. C. Blood ionized calcium concentration determined at the end of the treatment (n=5 in each group). In both b and c, NT, non-treated; STR, strontium-treated, *, P<0.01 vs. NT value.
# (A) Blood ionized calcium levels. Normal mice (n=5) were treated with vehicle (control), 1,25(OH)2D3 (VD3) or compound #9 at a daily dose of 1.5 μg/kg body weight for one week. […] (B) Renin mRNA levels in the kidneys of treated mice, as determined by quantitative Northern blots. *, P<0.01.
# Measurement of blood and urine parameters. The concentration of blood ionized calcium was determined using a Ciba/Coming 634 Ca^++/pH analyzer (Chiron Diagnostics, East Walpole, Mass.) from 50 μl of whole blood obtained from tail snipping. Blood glucose concentrations were determined by using One Touch Sure Step test strips (Life Scan, Milpitas, Calif.). Serum intact parathyroid hormone (iPTH) was determined using a commercial ELISA kit (Immutopics, San Clemente, Calif.). The concentration of serum and urinary Na^+, K^+, and creatinine was determined by a Beckman Coulter CX5 Autoanalyzer as described by Li et al. (2001).
# [2] = test system: renin mRNA, As4.1-hVDR cells; assay: Renin mRNA by Northern blot in As4.1-hVDR cells (vitamin D analog screening); type: cell-based, mouse
# Description: Vitamin D analogues listed in TABLE 1 were used to treat As4.1-hVDR cells at 10^−10, 10^−9 and 10^−8 M. Renin mRNA was analyzed by Northern blot. 36B4 is a control mRNA and represents a mouse acidic ribosomal phosphoprotein.
# FIG. 4 is an histogram of evaluation of Gemini analogues by Northern blot analysis. The 11 Gemini compounds listed in TABLE 2 (indicated) were used to treat As4.1 hVDR cells at 10^−10, 10^−9, and 10^−8 M for 24 hours. Renin mRNA was quantitated by Northern blots. The quantitative data obtained at 10^−10 and 10^−9 M are shown in A and B. The # of each compound corresponds to the number shown in TABLE 2. E, ethanol-treated control, VD, 1,25(OH)2D3.
# as §1
# As4.1 cell culture and transfection. As4.1 cells (ATCC, Manassas, Va.) were cultured in DMEM supplemented with 10% FBS at 37° C. and 5% CO2. For transient transfection, the cells were grown in 10-cm dishes to 50% confluence and transfected with pcDNA3.1, pcDNA-hVDR or pcDNA-PTH/PTHrPR plasmid (10 μg DNA/dish) by the standard calcium phosphate method. Twenty-four hr after transfection, the cells were treated for 24 hr with 5×10^−8 M of 1,25(OH)2D3 or ethanol in serum-free media, or with different doses of bovine PTH(1-34) as indicated. Total RNA was isolated and analyzed for renin mRNA expression by northern blot. For stable transfection, As4.1 cells were transfected with pcDNA3.1 or pcDNA-hVDR plasmid by the use of Superfect reagent (Qiagen, Valencia, Calif.) and selected with 350 μg/ml of G418 for two weeks. Individual colonies were picked, expanded and selected for VDR expression. The As4.1-hVDR stable clones were treated with different doses of 1,25(OH)2D3 for 24 hr in serum-free media, and total RNA were analyzed by northern blot to examine renin expression.
smiles,measurement,setting,value
"C=C1/C(=C\C=C2/CCC[C@]3(C)[C@@H]([C@H](C)CCCC(C)(C)O)CC[C@@H]23)C[C@@H](O)C[C@@H]1O [1,25-dihydroxyvitamin D3]",Renin mRNA expression in As4.1 cells,"renin mRNA, As4.1 cells; As4.1 cells not transfected",moderate reduction
same,Reduction of renin mRNA expression,"renin mRNA, As4.1 cells; As4.1 cells transiently transfected with pcDNA-hVDR, 24 hrs",about 90%
same,Deaths on day 7,[1]; daily dose 1.5 μg/kg body weight,2 animals out of the 5 mice
same,Blood calcium level,[1]; daily dose 1.5 μg/kg body weight for one week,severe hypercalcemia
same,Renin expression in stable As4.1-hVDR clones at different doses,[2]; not seen in As4.1-pcDNA cells,dose-dependent suppression
same,Reduction of the level of renin mRNA,"[2]; stable As4.1-hVDR cells, 10^−8 M, 24 hr",about 90%
same,Time of treatment after which suppression of renin mRNA was evident,"[2]; time-course studies, As4.1-hVDR cells",6 h
